Experimental data published in paper PMC6789111, “Crossing the blood-brain-barrier with nanoligand drug carriers self-assembled from a phage display peptide” (Nature Communications, 2019).
Peptide text beside a SMILES is read from it. * marks the point of attachment. 5FAM = O=C1OC2(c3ccc(O)cc3Oc3cc(O)ccc32)c2ccc(C(=O)*)cc21

Tests used:
[1] = Blood count after intravenous injection; type: in vivo, ICR mice; conditions: mouse, in vivo, iv
Excerpt: Supplementary Table 2. Blood count following intravenous injection of FAM-CGY NLCs in free form and complexed with siRNA
Samples WBC RBC HGB HCT MCV MCH MCHC PLT
WBC: white blood cell; RBC: red blood cell count; HGB: haemoglobin; HCT: haematocrit; MCV: mean corpuscular volume; MCH: mean corpuscular haemoglobin; MCHC: mean corpuscular
significance (*p < 0.05). The results are mean ± s.d. (n = 3 animals per group). The experiment was repeated twice with identical results. The siRNA represent BACE-1-specific siRNA. The
final concentration of the peptide conjugate was 10 µM and that of siRNA was 48 nM, based on blood volume calculation equivalent to 6% of the body weight. LPS = lipopolysaccharide.

GFAP = assay: ELISA of GFAP in hippocampus; type: in vivo, ICR mice; conditions: Ave.
hCMEC/D3 cells = assay: Cell uptake by flow cytometry; type: cell-based, human; conditions: 5 µM, foetal bovine serum, 16 h, 37 °C (Supplementary Fig. 12)
Procedure: Peptide internalisation was measured by flow cytometry (FACS ArrayTM Cell Analysis, Becton, Dickinson and Company, NJ, USA). Cells (1 × 10^5 cm^−2) were seeded on 24-well plates and grown 1 day at 37 °C and 5% CO2 in order to reach 60–70% confluence. The cells were washed 3 times with pre-heated PBS. The uptake studies were initiated by adding 500 µL of 5 µM fluorescence-labelled peptides (diluted in cell medium containing with different serum concentration). Serum concentration in incubation varied from 5 to 20% (v/v). […] A total of 10,000 cells were analysed by flow cytometry.

## CC[C@H](C)[C@H](NC(=O)[C@H](CC(N)=O)NC(=O)[C@H](Cc1c[nH]cn1)NC(=O)[C@@H](NC(=O)[C@@H]1CCCN1C(=O)[C@H](CCCNC(=N)N)NC(=O)[C@H](Cc1ccc(O)cc1)NC(=O)CNC(=O)[C@H](CS)NC(=O)c1ccc2c(c1)C(=O)OC21c2ccc(O)cc2Oc2cc(O)ccc21)C(C)C)C(=O)N[C@@H](CCCNC(=N)N)C(=O)NCC(=O)N[C@@H](Cc1c[nH]cn1)C(=O)N[C@@H](Cc1c[nH]c2ccccc12)C(=O)N[C@@H](C)C(=O)N1CCC[C@H]1C(=O)NCC(=O)O [FAM-CGY] (5FAM-CGYRPVHNIRGHWAPG-OH)
[1]
  WBC: 4.32±0.53 (×109)L-1
  effect on blood count: no effect on blood count
GFAP; 4 h after i.v.
  GFAP in hippocampus (Figure 6i): 219.00
GFAP; 24 h after i.v. (LPS 24 h)
  GFAP in hippocampus (Figure 6i): 209.59
GFAP; 72 h after i.v.
  GFAP in hippocampus (Figure 6i): 220.69
hCMEC/D3 cells
  effect of serum proteins on association with endothelial cells: not affected by the presence of serum proteins
